Molecular target: T1, human TGR5 (h-TGR5) (Homo sapiens, UniProt Q8TDU6)
T1 construct: expressed in transfected cells
T1 sequence (Q8TDU6 1-330): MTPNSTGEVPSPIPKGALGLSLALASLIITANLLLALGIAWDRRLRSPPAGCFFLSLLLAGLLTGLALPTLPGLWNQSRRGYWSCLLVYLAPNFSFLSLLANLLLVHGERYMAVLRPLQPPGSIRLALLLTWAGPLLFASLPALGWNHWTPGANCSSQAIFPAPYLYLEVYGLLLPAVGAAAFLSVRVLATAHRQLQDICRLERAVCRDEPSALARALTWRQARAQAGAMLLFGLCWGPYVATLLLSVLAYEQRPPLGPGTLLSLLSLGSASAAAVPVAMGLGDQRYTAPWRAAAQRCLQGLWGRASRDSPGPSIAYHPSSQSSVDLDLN
Assay: TGR5/CRE-Luciferiase Assay (HEK 293 hTGR5/CRE-Luc cells)
Assay type: cell-based
Details: h-TGR5 CRE-Luc EC50, Table 1; read-out: CRE-Luc (EC50)
Description: Compounds were serially diluted in DMEM containing 5% DMSO and 5 μL of compound or media alone was transferred to each well and plates were incubated for 6 hours. Following incubation, 30 μL of lysis/luciferase buffer was added to each well. The luciferase activity was then measured on the EnVision™ plate reader and the dose response data was analyzed using ActivityBase.
In the following tables, EC50 values determined according to the TGR5 cAMP Assay described herein (cAMP); EC50 values determined according to the TGR5/CRE-Luciferiase Assay described herein (CRE-Luc). […] The following compounds in Tables 1 and 2 were made by using procedures described in the above Schemes and Examples, and, where applicable, by making any necessary substitutions of known materials that one skilled in the art would ordinarily understand how to do.

| Compound | EC50 [µM] |
| --- | --- |
| CNS(=O)(=O)c1ccc(C(C)(C)c2cnc(SCc3ccc(F)cc3Cl)n2-c2ccc(F)cc2)cc1 [4-{1-[2-{[(2-chloro-4-fluorophenyl)methyl]thio}-1-(4-fluorophenyl)-1H-imidazol-5-yl]-1-methylethyl}-N-methylbenzenesulfonamide] | 0.1 to 1 |
| CC(C)(c1ccc(Cl)c(Cl)c1)c1cnc(S(=O)(=O)NCc2ccc(C(F)(F)F)cc2F)n1-c1ccc(F)cc1 [5-[1-(3,4-dichlorophenyl)-1-methylethyl]-1-(4-fluorophenyl)-N-{[2-fluoro-4-(trifluoromethyl)phenyl]methyl}-1H-imidazole-2-sulfonamide] | 0.1 to 1 |
| CC(C)(c1ccc(Cl)c(S(N)(=O)=O)c1)c1cnc(SCc2ccc(Cl)c(-c3nnn[nH]3)c2)n1-c1ccc(F)cc1 [2-chloro-5-{1-[2-({[4-chloro-3-(1H-tetrazol-5-yl)phenyl]methyl}thio)-1-(4-fluorophenyl)-1H-imidazol-5-yl]-1-methylethyl}benzenesulfonamide] | 0.1 to 1 |
| CC(C)(c1ccc(Cl)c(O)c1)c1cnc(SCc2c(F)cccc2Cl)n1-c1ccc(F)cc1 [2-chloro-5-{1-[2-{[(2-chloro-6-fluorophenyl)methyl]thio}-1-(4-fluorophenyl)-1H-imidazol-5-yl]-1-methylethyl}phenol] | < 0.1 |
| CC(c1ncc(C(C)(C)c2ccc(Cl)c(Cl)c2)n1-c1ccc(F)cc1)S(=O)(=O)c1ccc(F)cc1Cl (stereo not shown) [2-{1-[(2-chloro-4-fluorophenyl)sulfonyl]ethyl}-5-[1-(3,4-dichlorophenyl)-1-methylethyl]-1-(4-fluorophenyl)-1H-imidazole] | 1 to 10 |
| CC(C)(C(=O)O)c1ccc(F)c(CSc2ncc(C(C)(C)c3ccc(Cl)c(Cl)c3)n2-c2ccc(F)cc2)c1 [2-{3-[({5-[1-(3,4-dichlorophenyl)-1-methylethyl]-1-(4-fluorophenyl)-1H-imidazol-2-yl}thio)methyl]-4-fluorophenyl}-2-methylpropanoic acid] | 1 to 10 |
| CC(C)(c1ccc(Cl)c(Cl)c1)c1cnc(COc2ccc(C(N)=O)c(Cl)c2)n1-c1ccc(F)cc1 [2-chloro-4-[({5-[1-(3,4-dichlorophenyl)-1-methylethyl]-1-(4-fluorophenyl)-1H-imidazol-2-yl}methyl)oxy]benzamide] | 1 to 10 |
| Fc1ccc(-n2c(C(F)(F)c3ccc(Cl)c(Cl)c3)cnc2SCc2c(F)cccc2Cl)cc1 [2-{[(2-chloro-6-fluorophenyl)methyl]thio}-5-[(3,4-dichlorophenyl)(difluoro)methyl]-1-(4-fluorophenyl)-1H-imidazole] | 1 to 10 |
| CC(C)(c1ccc(Cl)c(Cl)c1)c1cnc(S(=O)(=O)N[C@H](CO)c2ccccc2)n1-c1ccc(F)cc1 [5-[1-(3,4-dichlorophenyl)-1-methylethyl]-1-(4-fluorophenyl)-N-[(1S)-2-hydroxy-1-phenylethyl]-1H-imidazole-2-sulfonamide] | 1 to 10 |
| CC(C)(c1ccc(Cl)c(Cl)c1)c1cnc(COc2ccc(F)cc2Cl)n1-c1ccc(F)cc1 [2-{[(2-chloro-4-fluorophenyl)oxy]methyl}-5-[1-(3,4-dichlorophenyl)-1-methylethyl]-1-(4-fluorophenyl)-1H-imidazole] | 1 to 10 |
| CC(C)(c1ccc(F)c(F)c1)c1cnc(S(=O)(=O)Cc2ccc(F)cc2Cl)n1-c1ccc(F)cc1 [2-{[(2-chloro-4-fluorophenyl)methyl]sulfonyl}-5-[1-(3,4-difluorophenyl)-1-methylethyl]-1-(4-fluorophenyl)-1H-imidazole] | 1 to 10 |
| CC(C)(c1ccc(Cl)c(Cl)c1)c1cnc(C(=O)CCc2ccc(Cl)cc2Cl)n1-c1ccc(F)cc1 [3-(2,4-dichlorophenyl)-1-{5-[1-(3,4-dichlorophenyl)-1-methylethyl]-1-(4-fluorophenyl)-1H-imidazol-2-yl}propan-1-one] | 1 to 10 |
| COc1ccc(C(C)(C)c2c(-c3ccc(F)cc3)nc(SCc3c(F)cccc3Cl)n2C)cc1OC [5-{1-[3,4-bis(methyloxy)phenyl]-1-methylethyl}-2-{[(2-chloro-6-fluorophenyl)methyl]thio}-4-(4-fluorophenyl)-1-methyl-1H-imidazole] | 1 to 10 |

— patent publication US8785488B2 (Exelixis Patent Company LLC, priority 2009, dated 2014)
